# In patent publication US20230026616A1, “PYRIMIDOIMIDAZOLE COMPOUNDS USED AS DNA-PK INHIBITORS” (MEDSHINE DISCOVERY INC., priority 2019, published 2023):
# pIC50: −log10 of the molar value. Marks after values point to notes of the source that are not given here.
# Assays:
# Human DNA-PK = molecular target: T1, Human DNA-PK (Homo sapiens, UniProt P78527); assay: DNA-dependent protein kinase (DNA-PK) inhibitory activity screening (Eurofins, HTRF); assay type: biochemical; settings: ATP: 10 μM; read-out: DNA-PK kinase inhibition IC50
# T1 construct: purchased Eurofins (Eurofins Pharma Discovery Service)
# Method: Experimental Embodiment 1: DNA-Dependent Protein Kinase (DNA-PK) Inhibitory Activity Screening Experiment
# This experiment was tested in the Eurofins
# Human DNA-PK; Mg/ATP; GST-cMyc-p53; EDTA; Ser15 antibody; ATP: 10 μM.
# Experimental Method (Eurofins Pharma Discovery Service):
# DNA-PK (h) was incubated in assay buffer containing 50 nM GST-cMyc-p53 and Mg/ATP (according to the required concentration). The reaction was initiated by adding Mg/ATP mixture. After 30 minutes of incubation at room temperature, the reaction was stopped by adding a stop solution containing EDTA. Finally, detection buffer (containing labeled anti-GST monoclonal antibody and europium-labeled anti-Ser15 antibody against phosphorylated p53) was added. The plate was then read in time-resolved fluorescence mode, and the homogeneous time-resolved fluorescence (HTRF) signal was determined according to the formula HTRF=10000×(Em665 nm/Em620 nm).
# [1] = Pharmacokinetic evaluation (1): cassette PK in Balb/c male mice, plasma; assay type: in vivo; settings: for AUC(0-t) / C0 / clearance / half-life / Vd / Cmax / Tmax: male, Balb/c; for AUC(0-t) / C0 / clearance / half-life / Vd / Cmax / Tmax / Tlast: mouse plasma; for Vd: read-out: Vdss; for Tmax: read-out: Tmax; for F: mouse
# Method: Test compounds were mixed with 10% dimethyl sulfoxide/50% polyethylene glycol 200/40% water (compounds 1, 4, 10, 17) or 20% N,N-dimethylacetamide/80% water (compound 5), vortexed and sonicated to prepare a nearly clear solution of 0.08 mg/mL (compounds 1, 4, 10, 17) or 0.50 mg/mL (compound 5), then filtered through a microporous membrane for next step. Balb/c male mice of 18 to 20 grams were selected and administered intravenously with the candidate compound solution at a dose of 0.4 (compounds 1, 4, 10, 17) or 1 mg/kg (compound 5). Test compounds were mixed with 10% dimethyl sulfoxide/50% polyethylene glycol 200/40% water (compounds 1, 4, 10, 17) or 20%-hydroxypropyl-β-cyclodextrin (compound 5), vortexed and sonicated to prepare a nearly clear solution of 0.2 mg/mL (compounds 1, 4, 10, 17) or 1 mg/mL (compound 5), then filtered through a microporous membrane for next step. Balb/c male mice of 18 to 20 grams were selected and orally administered with the candidate compound solution at a dose of 2 (compounds 1, 4, 10, 17) or 5 mg/kg (compound 5). Whole blood was collected for a certain period of time, and plasma was prepared, then drug concentration was detected by LC-MS/MS method, and pharmacokinetic parameters were calculated by Phoenix WinNonlin software (Pharsight, USA).
# (§1) IV: intravenous injection; PO: oral; C0: instantaneous […] concentration after intravenous injection; Cmax: highest plasma concentration after administration; Tmax: time required to reach peak of drug concentration after administration; T1/2: time required for the plasma drug concentration to decrease by half, Vdss: apparent volume of distribution, refers to the proportional constant of the drug dose in vivo and the blood drug concentration when the drug reaches a dynamic equilibrium in vivo. Cl: clearance rate, refers to the […] cleared from the body per unit time; Tlast: time at the last detection point; AUC0-last: area under the drug-time curve, refers to the area covered by the plasma concentration curve and the time axis; F: a measure of the speed and degree of drug absorption into the blood circulation, which is an important indicator for evaluating the degree of drug absorption.
# [2] = Pharmacokinetic and brain exposure evaluation in rats; assay type: in vivo, SD male rats; settings: for Vd: read-out: Vdss
# From the text: as §1
# Test compounds were mixed with 10% dimethyl sulfoxide/50% polyethylene glycol 200/40% water, vortexed and sonicated to prepare a nearly clear solution of 0.5 mg/mL (compound 5) or 1 mg/mL (compound 17), then filtered through a microporous membrane for next step. SD male rats were selected and administered intravenously with the candidate compound solution at a dose of 1 mg/kg (compound 5) or 2 mg/kg (compound 17). Test compounds were mixed with 10% dimethyl sulfoxide/50% polyethylene glycol 200/40% water, vortexed and sonicated to prepare a homogeneous suspension of 4 mg/mL (compound 5) or a nearly clear solution of 1 mg/mL (compound 17). SD male rats were selected and orally administered with the candidate compound solution at a dose of 40 mg/kg (compound 5) or 10 mg/kg (compound 17). Whole blood, cerebrospinal fluid, brain tissue were collected for a certain period of time and plasma was prepared, and the drug concentration was detected by LC-MS/MS method, and the pharmacokinetic parameters were calculated by Phoenix WinNonlin software (Pharsight, USA).
# [3] = Pharmacokinetic evaluation in Beagle dogs; assay type: in vivo, Male Beagle dogs; settings: for Tlast / AUC(0-t) / C0 / clearance / half-life / Vd / Cmax / Tmax: Beagle dog plasma; for F: Beagle dog, PO 5 mpk vs IV 1 mpk; for AUC(0-t) / C0 / clearance / half-life / Vd / Cmax / Tmax: male; for Vd: read-out: Vdss
# From the text: as §1
# Test compounds were mixed with 10% dimethyl sulfoxide/50% polyethylene glycol 200/40% water, vortexed and sonicated to prepare a nearly clear solution of 1 mg/mL, then filtered through a microporous membrane for next step. Male Beagle dogs were selected and administered intravenously with the candidate compound solution at a dose of 1 mg/kg. Test compounds were mixed with 10% dimethyl sulfoxide/50% polyethylene glycol 200/40% water, vortexed and sonicated to prepare a nearly clear solution of 1 mg/mL, then filtered with a microporous membrane for next step. Male Beagle dogs were selected and orally administered with the candidate compound solution at a dose of 5 mg/kg. Whole blood was collected for a certain period of time, and plasma was prepared, then drug concentration was detected by LC-MS/MS method, and pharmacokinetic parameters were calculated by Phoenix WinNonlin software (Pharsight, USA).
# [4] = male, SD, 2 mg/kg, rat plasma, IV 2 mpk
# [5] = male, SD, 10 mg/kg, rat plasma, PO 10 mpk
# [6] = male, SD, 1 mg/kg, rat plasma, IV 1 mpk
# [7] = male, SD, 40 mg/kg, rat, PO 40 mpk, Cerebrospinal fluid
# [8] = male, SD, 40 mg/kg, rat, PO 40 mpk, Plasma
smiles,measurement,setting,value
Cc1cc2nncn2cc1Nc1ncc2c(n1)n(N1CC3CCC(C1)O3)c(=O)n2C [Compound 17],pIC50,Human DNA-PK,9.30
same,AUC(0-t),[1]; IV 0.4 mg/kg,0.47 µM·h
same,C0,[1]; IV 0.4 mg/kg,0.748 µM
same,clearance,[1]; IV 0.4 mg/kg,34.7 mL/min/kg
same,half-life,[1]; IV 0.4 mg/kg,0.559 h
same,Vd,[1]; IV 0.4 mg/kg,1.39 L/kg
same,AUC(0-t),[1]; PO 2 mg/kg,3.4 µM·h
same,Cmax,[1]; PO 2 mg/kg,1.54 µM
same,half-life,[1]; PO 2 mg/kg,0.81 h
same,Tmax,[1]; PO 2 mg/kg,1 h
same,Tlast,[1]; IV 0.4 mg/kg,4 h
same,Tlast,[1]; PO 2 mg/kg,8 h
same,F,[1]; PO 2 mg/kg vs IV 0.4 mg/kg,144%
same,AUC(0-t),[2]; [4],4.86 µM·h
same,C0,[2]; [4],5.3 µM
same,clearance,[2]; [4],16.9 mL/min/kg
same,half-life,[2]; [4],1.16 h
same,Vd,[2]; [4],1.4 L/kg
same,AUC(0-t),[2]; [5],32.5 µM·h
same,Tmax,[2]; [5],2 h
same,half-life,[2]; [5],2.29 h
same,Cmax,"[2]; male, SD, 10 mg/kg, rat plasma, PO 10 mpk, read-out: Cmax",6.25 µM
same,Tlast,"[2]; rat plasma, IV 2 mpk",8 h
same,Tlast,"[2]; rat plasma, PO 10 mpk",8 h
same,Tlast,[3]; IV 1 mpk,24 h
same,Tlast,[3]; PO 5 mpk,24 h
same,F,[3],92.3%
same,AUC(0-t),"[3]; 1 mg/kg, IV 1 mpk",6.82 µM·h
same,C0,"[3]; 1 mg/kg, IV 1 mpk",1.45 µM
same,clearance,"[3]; 1 mg/kg, IV 1 mpk",5.89 mL/min/kg
same,half-life,"[3]; 1 mg/kg, IV 1 mpk",5.04 h
same,Vd,"[3]; 1 mg/kg, IV 1 mpk",1.58 L/kg
same,AUC(0-t),"[3]; 5 mg/kg, PO 5 mpk",31.5 µM·h
same,Cmax,"[3]; 5 mg/kg, PO 5 mpk",4.94 µM
same,Tmax,"[3]; 5 mg/kg, PO 5 mpk",1.5 h
same,half-life,"[3]; 5 mg/kg, PO 5 mpk",4.27 h
Cc1cc2ncnn2cc1Nc1ncc2c(n1)n(N1CC3CCC(C1)O3)c(=O)n2C [Compound 5],pIC50,Human DNA-PK,9.00
same,AUC(0-t),[1]; IV 1 mg/kg,1.66 µM·h
same,C0,[1]; IV 1 mg/kg,3.6 µM
same,clearance,[1]; IV 1 mg/kg,24.7 mL/min/kg
same,half-life,[1]; IV 1 mg/kg,1.28 h
same,Vd,[1]; IV 1 mg/kg,1.49 L/kg
same,AUC(0-t),[1]; PO 5 mg/kg,3.49 µM·h
same,Cmax,[1]; PO 5 mg/kg,2.17 µM
same,half-life,[1]; PO 5 mg/kg,3.85 h
same,Tmax,[1]; PO 5 mg/kg,0.25 h
same,Tlast,[1]; PO 5 mg/kg,10 h
same,F,[1]; PO 5 mg/kg vs IV 1 mg/kg,44.5%
same,AUC(0-t),[2]; [6],2.38 µM·h
same,C0,[2]; [6],3.04 µM
same,clearance,[2]; [6],17 mL/min/kg
same,half-life,[2]; [6],1.45 h
same,Vd,[2]; [6],1.41 L/kg
same,Tmax,"[2]; male, SD, 40 mg/kg, rat, PO 40 mpk, Brain tissue",4 h
same,AUC(0-t),[2]; [7],7.74 µM·h
same,Tmax,[2]; [7],2 h
same,Cmax,"[2]; male, SD, 40 mg/kg, rat, PO 40 mpk, Cerebrospinal fluid, read-out: Cmax",1.26 µM
same,AUC(0-t),[2]; [8],59.9 µM·h
same,Tmax,[2]; [8],2 h
same,Cmax,"[2]; male, SD, 40 mg/kg, rat, PO 40 mpk, Plasma, read-out: Cmax",10.2 µM
same,Tlast,"[2]; rat plasma, IV 1 mpk",8 h
same,AUC0-last,"[2]; rat, PO 40 mpk, Brain tissue",6369^b h*nmol/kg
same,Cmax,"[2]; rat, PO 40 mpk, Brain tissue",1019^a nmol/kg
same,Tlast,"[2]; rat, PO 40 mpk, Brain tissue",8 h
same,Tlast,"[2]; rat, PO 40 mpk, Cerebrospinal fluid",8 h
same,Tlast,"[2]; rat, PO 40 mpk, Plasma",8 h
same,Tlast,[3]; IV 1 mpk,24 h
same,Tlast,[3]; PO 5 mpk,24 h
same,F,[3],279%
same,AUC(0-t),"[3]; 1 mg/kg, IV 1 mpk",4.96 µM·h
same,C0,"[3]; 1 mg/kg, IV 1 mpk",1.82 µM
same,clearance,"[3]; 1 mg/kg, IV 1 mpk",8.26 mL/min/kg
same,half-life,"[3]; 1 mg/kg, IV 1 mpk",4.04 h
same,Vd,"[3]; 1 mg/kg, IV 1 mpk",1.87 L/kg
same,AUC(0-t),"[3]; 5 mg/kg, PO 5 mpk",68.3 µM·h
same,Cmax,"[3]; 5 mg/kg, PO 5 mpk",9.27 µM
same,Tmax,"[3]; 5 mg/kg, PO 5 mpk",1.67 h
same,half-life,"[3]; 5 mg/kg, PO 5 mpk",4.27 h
